According to patent US11382892B2, “Method for administration” (Hoffmann-La Roche Inc., priority 2012, dated 2022):
“And” between values parts separate entries of the source, which are not always exact repeats. Equal entries are not always repeated.

Experiments:
[1] = Toxicity summary (body weight, mortality) in SJSA1 xenograft study; type: in vivo
Source text: In the examples below, weight loss was graphically represented as percent change in mean group body weight, using the formula: ((W−W0)/W0)×100, where ‘W’ represents mean body weight of the treated group at a particular day, and ‘W0’ represents mean body weight of the same treated group at initiation of treatment.
Female athymic Crl:NU-Foxn1nu mice (10/group), obtained from Charles River Laboratories (Wilmington, Del.) were utilized when they were approximately 10-12 weeks of age and weighed 23-25 g. The health of the mice was assessed daily by gross observation and analyses of blood samples taken from sentinel animals housed on shared shelf racks. All animals were allowed to acclimate and recover from any shipping-related stress for a minimum of 72 hours prior to experimental use. Autoclaved water and irradiated food (5058-ms Pico Lab mouse chow, Purina Mills, Richmond, Ind.) were provided ad libitum, and the animals were maintained on a 12 hour light and dark cycle. Cages, bedding and water bottles were autoclaved before use and changed weekly. All animal experiments were conducted in accordance with the Guide for the Care and Use of Laboratory Animals, local regulations, and protocols approved by the Roche Animal Care and Use Committee in an AAALAC accredited facility.
Treatment duration was 2-4 weeks. Dates of tumor implant, treatment initiation (study start date), and termination of treatment (study end date) can be found in Table 6 below. The starting tumor volume for this study was about 220 mm^3. Tumor volumes and animal body weights were measured three times per week and animals were monitored for clinical signs daily.

[2] = system: human acute myeloid leukemia xenograft model MOLM-13; experiment: Survival / increase in life span in MOLM-13 xenograft; type: in vivo, mice; details: 80 mg/kg qd × 5 po
Experimental: For survival assessment, the percent of increased life space (ILS) was calculated as: 100×[(median survival day of treated group−median survival day of control group)/median survival day of control group]. Median survival was determined utilizing Kaplan Meier survival analysis. Survival in treated groups was statistically compared with the vehicle group and survival comparisons were done between groups using the log-rank test (Graph Pad Prism, La Jolla, Calif., USA). Differences between groups were considered significant when the probability value (p) was ≤0:05.
All dose levels are reported as the actual dosage of Compound A rather than including drug plus polymer.
Female SCID:beige mice (10/group), obtained from Charles River Laboratories (Wilmington, Del.) were utilized when they were approximately 8-10 weeks of age and weighed 21-23 g. The health of the mice was assessed daily by gross observation and analyses of blood samples taken from sentinel animals housed on shared shelf racks. All animals were allowed to acclimate and recover from any shipping-related stress for a minimum of 72 hours prior to experimental use. […]
Treatment duration was initiated on day 3 and was for 2 weeks. Animal body weights were measured three times per week and animals were monitored for clinical signs daily.

MDM2 mRNA = MDM2 mRNA assay in patient tumor biopsies; type: in vivo, human; details: for MDM2 mRNA Average FCBL: cohort average; for MDM2 mRNA Median FCBL: cohort median; for MDM2 mRNA FCBL: individual patients, tumor biopsy vs baseline
Experimental: The 10 mg tablets contain hypromellose acetate succinate, mannitol, microcrystalline cellulose, croscarmellose sodium, colloidal silicon dioxide, and magnesium stearate. The film-coat consists of hypromellose, titanium dioxide, talc, triacetin, iron oxide yellow, and iron oxide red. The 50 mg, 200 mg, and 400 mg film coated tablets contain the excipients hypromellose acetate succinate, croscarmellose sodium, colloidal silicon dioxide, and magnesium stearate. The film-coat consists of polyvinyl alcohol, titanium dioxide, polyethylene glycol, talc, iron oxide yellow, iron oxide red, and iron oxide black.
Tumor biopsies were collected at baseline and cycle 1, day 5±2.

[3] = 100 mg/kg QD po 2 on/12 off x 2
[4] = 200 mg/kg (two 100 mg/kg doses 8 hr apart) 1x/wk po

## COc1cc(C(=O)O)ccc1NC(=O)[C@@H]1N[C@@H](CC(C)(C)C)[C@](C#N)(c2ccc(Cl)cc2F)[C@H]1c1cccc(Cl)c1F [Compound A, 4-{[(2R,3S,4R,5S)-4-(4-Chloro-2-fluoro-phenyl)-3-(3-chloro-2-fluoro-phenyl)-4-cyano-5-(2,2-dimethyl-propyl)-pyrrolidine-2-carbonyl]-amino}-3-methoxy-benzoic acid]
[1]; 7.5 mg/kg QD po
  # of animals ≥20% BWL: 0
  % Change in Body Weight at end of Study Day 29: 9.0%
  Maximum % Weight gain: 9.0%
  Maximum % Weight loss: −0.3%
  Mortality: 0
[1]; 15 mg/kg QD po
  # of animals ≥20% BWL: 0
  % Change in Body Weight at end of Study Day 29: 5.9%
  Maximum % Weight gain: 5.9%
  Maximum % Weight loss: −2.2%
  Mortality: 0
[1]; 20 mg/kg QD po 20 on/8 off
  # of animals ≥20% BWL: 0
  % Change in Body Weight at end of Study Day 29: 1.2%
  Maximum % Weight gain: 1.2%
  Maximum % Weight loss: −3.9%
  Mortality: 0
[1]; 30 mg/kg QD po
  # of animals ≥20% BWL: 0
  % Change in Body Weight at end of Study Day 29: 1.3%
  Maximum % Weight gain: 1.3%
  Maximum % Weight loss: −0.2%
  Mortality: 0
[1]; 50 mg/kg 1x/wk po
  # of animals ≥20% BWL: 0
  % Change in Body Weight at end of Study Day 29: 6.6%
  Maximum % Weight gain: 6.6%
  Maximum % Weight loss: −0.3%
  Mortality: 0
[1]; 50 mg/kg QD po 2 on/5 off x 4
  # of animals ≥20% BWL: 0
  % Change in Body Weight at end of Study Day 29: 7.1%
  Maximum % Weight gain: 7.1%
  Maximum % Weight loss: −0.8%
  Mortality: 0
[1]; 50 mg/kg QD po 4 on/10 off x 2
  # of animals ≥20% BWL: 0
  % Change in Body Weight at end of Study Day 29: 1.2%
  Maximum % Weight gain: 1.2%
  Maximum % Weight loss: −1.1%
  Mortality: 0
[1]; 80 mg/kg QD po 5 on/23 off
  # of animals ≥20% BWL: 0
  % Change in Body Weight at end of Study Day 29: 8.0%
  Maximum % Weight gain: 8.0%
  Maximum % Weight loss: 0.3%
  Mortality: 0
[1]; 100 mg/kg 1x/wk po
  # of animals ≥20% BWL: 0
  % Change in Body Weight at end of Study Day 29: 9.1%
  Maximum % Weight gain: 9.1%
  Maximum % Weight loss: 4.2%
  Mortality: 0
[1]; 100 mg/kg QD po 2 on/5 off x 4
  # of animals ≥20% BWL: 0
  % Change in Body Weight at end of Study Day 29: 1.3%
  Maximum % Weight gain: 1.3%
  Maximum % Weight loss: −2.8%
  Mortality: 0
[1]; [3]
  # of animals ≥20% BWL: 0
  % Change in Body Weight at end of Study Day 29: 0.9%
  Maximum % Weight gain: 1.8%
  Maximum % Weight loss: −0.6%
  Mortality: 0
[1]; [4]
  # of animals ≥20% BWL: 0
  % Change in Body Weight at end of Study Day 29: 6.3%
  Maximum % Weight gain: 6.3%
  Maximum % Weight loss: 1.9%
  Mortality: 0
[2]
  % ILS: 37%
[2]; vehicle 21 days
  50% Treatment Days (median survival): 28 days
MDM2 mRNA; BM-A1 800 mg bid Qwk × 3
  MDM2 mRNA Average FCBL: 1.2
  MDM2 mRNA Median FCBL: 1.1
  MDM2 mRNA FCBL: 1.0 and 1.4 and 1.1
MDM2 mRNA; BM-A2 1200 mg bid Qwk × 3
  MDM2 mRNA Average FCBL: 1.4
  MDM2 mRNA Median FCBL: 1.3
  MDM2 mRNA FCBL: 1.0 (2×) and 1.8 and 2.1 and 1.3
MDM2 mRNA; BM-B1 400 mg bid × 5 d
  MDM2 mRNA Average FCBL: 8.5
  MDM2 mRNA Median FCBL: 8.7
  MDM2 mRNA FCBL: 5.4 and 3.7 and 12.1 and 12.9
MDM2 mRNA; BM-B2 500 mg bid × 3 d
  MDM2 mRNA Average FCBL: 5.1
  MDM2 mRNA Median FCBL: 1.3
  MDM2 mRNA FCBL: 0.2 and 0.7 and 1.3 and 3.8 and 19.6
MDM2 mRNA; BM-B3 500 mg qd × 5 d
  MDM2 mRNA Average FCBL: 2.4
  MDM2 mRNA Median FCBL: 2.0
  MDM2 mRNA FCBL: 1.5 and 2.5 and 4.2 and 1.2
MDM2 mRNA; doses and schedules of Table 8
  levels of MDM2 mRNA expression in patient's tumors: increase in the levels of MDM2 mRNA expression
